{"source": "patent US8257915B2", "about": "“Farnesyltransferase inhibitors for treatment of laminopathies, cellular aging and atherosclerosis” (Progeria Research Foundation, Inc., priority 2002, dated 2012)", "key": {"[1]": {"system": "normal fibroblasts (GM08398) transiently expressing GFP-lamin A or GFP-progerin", "assay": "Nuclear morphology and GFP localization in normal fibroblasts transiently expressing GFP-lamin A or GFP-progerin, exposed to FTI", "assay_type": "cell-based, human", "settings": "100 nM FTI, 72 hours", "procedure": "(§1) FIG. 7 illustrates the effect of a 72 hour exposure to 100 nM FTI (PD169451) on GFP-lamin A (A) and GFP-progerin (B) localization, protein processing (C) and nuclear morphology (D and E). Confocal microscopy was used to examine the effects of FTIs on transiently-expressed GFP-lamin A (A) and GFP-progerin (B) in normal fibroblasts. Three focal planes are shown—top, middle and bottom (from left to right). Exposure to 100 nM FTI for 72 hours caused about half of the endogenous lamin A to be unprocessed pre-lamin A in normal and HGPS fibroblasts (C). Exposure to the FTI increased the percent of mock transfected cells and GFP-lamin A expressing cells with abnormal nuclear morphology (D). However, the percentage of cells expressing GFP-progerin with an abnormal nuclear morphology decreased by 33% when exposed to the FTI for 72 hours.\nGFP localization: Normal and HGPS fibroblasts were plated on coverslips in six well plates or in chambered microscope slides (BD Biosciences) 24 hours prior to transfection. Fibroblasts were transiently transfected with the GFP-lamin A or GFP-progerin expression constructs using FUGENE®6 transfection reagent (Roche). Seventy-two hours later the cells were washed two times with PBS (pH 7.2) and fixed for 20 minutes at 4° C. with 4% paraformaldehyde in PBS containing 62.5 µg/ml LPC palmitoyl and 1 U/ml rhodamine phalloidin (Molecular Probes) to stain the cytoskeleton. Following three washes with PBS, Prolong Gold mounting medium with DAPI (Molecular Probes) was applied to the coverslips which were then inverted and placed on microscope slides.\nNormal and HGPS fibroblasts were plated on coverslips in 6 well plates 24 hours prior to transfection. Normal fibroblasts were transiently transfected with the GFP-lamin A or GFP-progerin expression constructs using FUGENE®6 transfection reagent (Roche). The following day, the medium was replaced with growth medium containing 0 nM, 100 nM, 500 nM or […] of the FTI, PD169451. […]"}, "[2]": {"system": "HGPS fibroblasts (AG11498, P01, HGADFN136, HGADFN004)", "assay": "Nuclear morphology of HGPS fibroblasts maintained in FTI", "assay_type": "cell-based, human", "procedure": "(§2) FIG. 10 illustrates the effect of long-term exposure to low doses of FTI (PD169451) on the nuclear morphology of normal (GM08398 and HGMDFN090) and HGPS (AG11498, P01, HGADFN136 and HGADFN004) fibroblasts. Fibroblasts were maintained in medium with 0 nM, 10 nM or 100 nM FTI. Cultures were plated in chambered microscope slides 24 hours prior to fixing with 4% paraformaldehyde for nuclear morphology studies. **—Too few cells to count. […] All cell lines were passage 6 at the beginning of the analysis except for HGADFN004, which was at passage 12.\n(§3) Normal and HGPS fibroblasts were maintained in T75 tissue culture flasks with 0 nM, 10 nM, and 100 nM concentrations of the FTI, PD169451, added to the growth medium. The medium was changed every 2 days and the cells were split when they were approximately 80% confluent. Three days prior to each time point, a flask was trypsinized and cells were placed in chambered microscope slides (BD Biosciences) and maintained in the appropriate FTI concentration. Seventy-two hours later the cells were washed two times with PBS (pH 7.2) and fixed for 20 minutes at 4° C. with 4% paraformaldehyde in PBS containing 62.5 µg/ml LPC palmitoyl and 1 U/ml rhodamine phalloidin (Molecular Probes) to stain the cytoskeleton. Following three washes with PBS, […] of ProLong Gold mounting medium with DAPI (Molecular Probes) was applied and the cells were overlaid with a coverslip."}, "[3]": {"system": "normal fibroblasts (GM08398 and HGMDFN090)", "assay": "Nuclear morphology of normal fibroblasts maintained in FTI", "assay_type": "cell-based, human", "procedure": "as §2, §3"}, "[4]": {"system": "normal fibroblasts (GM08398) stably expressing GFP-lamin A, GFP-progerin and GFP-LA(L647R)", "assay": "Nuclear morphology and GFP localization in normal fibroblasts stably expressing GFP fusions (retroviral TET-OFF), exposed to FTI", "assay_type": "cell-based, human", "procedure": "FIG. 11 illustrates the effect of the FT1, PD169451, on the nuclear morphology of normal fibroblasts (GM08398) stably expressing GFP-lamin A, GFP-progerin and GFP-LA(L647R) using a retroviral TET-OFF® expression vector system (Clontech). Fibroblasts were maintained in medium with 0 nM, 10 nM or 100 nM FTI for 6 days.\nCultures were plated in chambered microscope slides 24 hours prior to fixing with 4% paraformaldehyde for nuclear morphology studies. Cells were maintained in three predetermined tetracycline concentrations, 0 mM for full expression (A), 0.05 mM for intermediate expression levels (B), and 8 mM for very low expression levels (C). […] Analysis of nuclear morphology was performed in a double blinded fashion with at least 70 cells analyzed per sample.\nFIG. 12 illustrates the effect of FTI on the distribution of GFP signal in normal fibroblasts (GM08398) expressing GFP-lamin A (panels A, B and C), GFP-progerin (D, E and F) and GFP-LA(L647R) (G, H, and I) using a retroviral TET-OFF® expression vector system with various FTI concentrations. Fibroblasts were maintained in medium with 0 nM (A, D, G), 10 nM (B, E, and H) or 100 nM (C, F and I) FTI for six days. Expression levels of the GFP fusions were maintained at levels similar to endogenous levels of lamin A by the addition of 0.05 mg/ml tetracycline. Signals were visualized with a Zeiss AXIOPHOT™ Fluorescent microscope and imaging was performed using the Olympus DP70 Digital Camera System.\nRetroviral Constructs: The pRevTetOff vector and pRevTRE constructs were transfected using FUGENE®6 transfection reagent into the Amphotropic Phoenix retroviral packaging line (Peter Nolan, Stanford University). Forty-eight hours after transfection the media containing retrovirus was filtered through a 0.22 micron filter and used immediately or stored at −70° C. Retroviral infection was performed by exposing target cells to a 1:1 mix of retroviral supernatant and growth medium with 4 μg/ml polybrene.\nBy way of example, GFP-lamin A and GFP-progerin were expressed from TET-OFF® retroviral expression vector constructs that allowed for sustained expression and modulation of expression to address the possibility of results due to over-expression of the fusion proteins when the proteins were transiently expressed. In addition, a cleavage minus mutant, GFP-LA(L647R), was included to examine the effect of retaining the farnesyl group without the 50 amino acid deletion found in progerin."}, "endogenous lamin A": {"system": "endogenous lamin A", "assay": "Lamin A processing (pre-lamin A) by immunoblot after FTI exposure", "assay_type": "cell-based, human", "settings": "100 nM FTI, 72 hours; normal and HGPS fibroblasts", "procedure": "as §1\nImmunoblotting: Proteins were transferred to Immobilon-P membrane (Millipore) using a Trans-Blot semi-dry electrophoretic transfer cell (BioRad) blocked with 5% dry milk in TBST and probed with lamin A/C specific antibodies according to standard protocols."}, "[5]": {"settings": "cited from earlier work"}, "[6]": {"settings": "10 nM FTI, 6 days, intermediate expression (0.05 mg/ml tetracycline), p<0.0001"}}, "note": "Like-named read-outs stand apart in the source and are kept apart here."}
{"compound": "CC(C)(CNC(=O)CN(Cc1ccc(OCc2ccccc2)cc1)C(=O)[C@H](Cc1cnc[nH]1)NC(=O)OCc1ccccc1)c1ccccc1", "note": "[PD169451]", "values": [{"measurement": "effect on the localization of transiently expressed GFP-lamin A and GFP-progerin", "setting": "[1]", "result": "significant effect"}, {"measurement": "percent of mock transfected cells and GFP-lamin A expressing cells with abnormal nuclear morphology", "setting": "[1]", "result": "increased"}, {"measurement": "decrease in the percentage of cells expressing GFP-progerin with an abnormal nuclear morphology", "setting": "[1]; normal fibroblasts transiently expressing GFP-progerin", "result": 33, "unit": "%"}, {"measurement": "percentage of abnormal nuclei in HGPS fibroblasts and in normal fibroblasts expressing GFP-progerin", "setting": "[2]; 10 nM FTI", "result": "significantly lowered"}, {"measurement": "drop in abnormal morphology", "setting": "[2]; 10 nM FTI, 14 days, HGPS cell line HGADFN004", "result": 12, "unit": "%"}, {"measurement": "decrease in abnormal nuclei", "setting": "[2]; 10 nM FTI, 14 days, three HGPS lines each", "result": "≥ 70", "unit": "%"}, {"measurement": "reduction in the percent of cells with abnormal nuclei", "setting": "[2]; 10 nM FTI, two days, four HGPS cell lines", "result": "~40", "unit": "%"}, {"measurement": "growth of HGADFN004 line", "setting": "[2]; 100 nM FTI, 14 day time point", "result": "failed to grow"}, {"measurement": "drop in the percent of cells with abnormal nuclear morphology", "setting": "[2]; AG11498 line, various FTI concentrations, three days", "result": "≤ 40", "unit": "%"}, {"measurement": "FTI dose that caused cells to stop dividing after a week to 10 days", "setting": "[2]; long-term exposure, normal and HGPS fibroblasts", "result": "greater than 200 nM"}, {"measurement": "nuclear morphology phenotype", "setting": "[2]; normal fibroblasts expressing progerin and HGPS fibroblasts (summary of Example 3)", "result": "significant improvement"}, {"measurement": "abnormal nuclear morphology in normal fibroblasts, dose dependence", "setting": "[3]; 0, 10, 100 nM FTI", "result": "dose dependent manner"}, {"measurement": "nuclear morphology of normal cells", "setting": "[3]; 10 nM FTI", "result": "did not substantially alter"}, {"measurement": "abnormal nuclear morphology in normal fibroblasts", "setting": "[3]; high doses of the FTI, greater than 200 nM", "result": "increase in abnormal nuclear morphology"}, {"measurement": "reduction of percent abnormal nuclei, GFP-LA(L647R)", "setting": "[4]; [6]", "result": 67, "unit": "%"}, {"measurement": "reduction of percent abnormal nuclei, GFP-progerin", "setting": "[4]; [6]", "result": 71, "unit": "%"}, {"measurement": "reorganization of GFP signal for any of the fusion proteins", "setting": "[4]; 10 nM FTI, stable expression", "result": "did not lead to this drastic reorganization"}, {"measurement": "effect on abnormal nuclear morphology at very high expression levels of GFP-progerin or GFP-LA(L647R)", "setting": "[4]; 10 nM FTI, no tetracycline", "result": "could not overcome"}, {"measurement": "localization of GFP-lamin A and GFP-progerin", "setting": "[4]; 100 nM FTI, stable expression", "result": "localize to intranuclear filaments"}, {"measurement": "localization of GFP-tagged L647R mutant", "setting": "[4]; 100 nM FTI, stable expression", "result": "redistributed to intranuclear filaments"}, {"measurement": "improvement in abnormal nuclear morphology at 100 nM in comparison to 10 nM", "setting": "[4]; 100 nM FTI, intermediate expression of GFP-progerin and GFP-LA(L647R)", "result": "less profound"}, {"measurement": "endogenous lamin A present as unprocessed pre-lamin A", "setting": "endogenous lamin A", "result": "about half"}]}
{"compound": "Cn1cncc1[C@@](N)(c1ccc(Cl)cc1)c1ccc2c(c1)c(-c1cccc(Cl)c1)cc(=O)n2C", "note": "[tipifarnib]", "values": [{"measurement": "tolerability", "setting": "[5]; Phase III trials, including trials involving children", "result": "well tolerated"}, {"measurement": "tolerability", "setting": "[5]; clinical trials", "result": "well tolerated"}]}
